The results in this text go back to PMC12198368, “The mitochondrial methylation potential gates mitoribosome assembly” (Nature Communications, 2025).

Test in all cases: cryo-EM structure of the complex
The target of assay [1] is T1, GTP-binding protein 7 GTPBP7 (Mus musculus, UniProt Q8R2R6).
T1 construct: gene Mtg1; BS3 cross-linked
T1 sequence (Q8R2R6 1-326): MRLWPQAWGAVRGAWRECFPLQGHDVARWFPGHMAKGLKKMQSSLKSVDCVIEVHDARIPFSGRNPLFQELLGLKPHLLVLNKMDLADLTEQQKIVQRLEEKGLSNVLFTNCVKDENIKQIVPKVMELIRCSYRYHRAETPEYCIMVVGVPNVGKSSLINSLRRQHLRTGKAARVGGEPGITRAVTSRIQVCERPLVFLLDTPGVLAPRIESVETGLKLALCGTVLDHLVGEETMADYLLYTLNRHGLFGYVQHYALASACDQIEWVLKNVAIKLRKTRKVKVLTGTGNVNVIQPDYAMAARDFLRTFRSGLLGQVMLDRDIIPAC
The note with it: 0.5 mM GMPPNP in lysis and resuspension buffers, 10 mM Mg(OAc)2, BS3 cross-linked; pre-hydrolysis (closed) conformation; mtLSU states B1 and B2.

Assay [2] has as its target T2, GTP-binding protein 10, GTPBP10 (Mus musculus, UniProt Q8K013).
T2 construct: BS3 cross-linked
T2 sequence (Q8K013 1-366): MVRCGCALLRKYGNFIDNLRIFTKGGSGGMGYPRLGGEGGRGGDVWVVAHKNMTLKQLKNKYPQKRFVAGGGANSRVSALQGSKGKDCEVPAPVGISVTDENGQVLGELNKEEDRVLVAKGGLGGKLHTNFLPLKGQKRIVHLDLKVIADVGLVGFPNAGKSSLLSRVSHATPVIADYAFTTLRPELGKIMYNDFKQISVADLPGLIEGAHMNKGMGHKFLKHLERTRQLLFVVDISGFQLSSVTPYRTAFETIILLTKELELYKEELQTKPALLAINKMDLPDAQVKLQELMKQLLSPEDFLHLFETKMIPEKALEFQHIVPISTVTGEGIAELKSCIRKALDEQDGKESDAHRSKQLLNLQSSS
The note with it: 0.5 mM GMPPNP in lysis and resuspension buffers, 10 mM Mg(OAc)2, BS3 cross-linked; relatively poor local resolution, ligand placed in binding pocket; mtLSU states B1 and B2.

Assay [3] addresses rRNA methyltransferase 2, MRM2 (Mus musculus, UniProt Q9CPY0). The assay is classed as binding. As to conditions: mtLSU state D; endogenous ligand, not added; SAM-depleted mitochondria; native sample, no GMPPNP.

Sequence of rRNA methyltransferase 2, MRM2 (Q9CPY0 25-246): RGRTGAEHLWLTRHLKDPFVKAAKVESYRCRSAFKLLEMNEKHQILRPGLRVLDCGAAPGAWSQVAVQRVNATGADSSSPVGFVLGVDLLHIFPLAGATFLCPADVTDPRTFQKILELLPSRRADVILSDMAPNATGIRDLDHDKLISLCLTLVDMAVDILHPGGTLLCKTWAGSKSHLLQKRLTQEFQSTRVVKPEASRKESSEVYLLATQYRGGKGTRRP

On to `Nc1nc2c(ncn2[C@@H]2O[C@H](COP(=O)(O)OP(=O)(O)NP(=O)(O)O)[C@@H](O)[C@H]2O)c(=O)[nH]1` [GMPPNP], for which the “cryo-EM structure of the complex” value was “GTPBP7 adopts its GMPPNP-bound pre-hydrolysis conformation as observed previously” in assay [1]; “A molecule of GMPPNP was placed in the binding pockets of GTPBP7 and GTPBP10” in assay [2]. Turning to `Nc1ncnc2c1ncn2[C@@H]1O[C@H](CSCC[C@H](N)C(=O)O)[C@@H](O)[C@H]1O` [SAH], the “cryo-EM structure of the complex” value in assay [3] is “A molecule of SAH was placed in the binding pocket of MRM2”.
